According to patent US20260077047A1, “CANCER THERAPY” (TURBINE SIMULATED CELL TECHNOLOGIES LTD, priority 2022, published 2026):

Key:
Assay in all cases: ATM inhibition viability assay (CTG) on cells ± NEK-1 knockout
Assay type in all cases: cell-based
Details in all cases: AZD1390 10 μM-0.00152 μM, 7 days, normalized to DMSO
[1] = system: Daoy cells ± NEK-1 knockout
Method: (§1) • i. Adhered cells were washed with 1 mL DPBS and trypsinised by addition of trypsin to 0.05% w/v and incubation under standard conditions. • ii. 1 mL cell culture medium was added to the detached cells to inhibit trypsin and suspended cells were centrifuged at 200×g for 5 minutes at room temperature. • iii. The supernatant was discarded and the cells were resuspended in 1 ml cell culture medium and exact cell number was determined using hemocytometer after Trypan blue staining. • iv. Cells were seeded according to table 5 in 90 μl/well in opaque 96-well plates in triplicate. Cells were grown overnight under standard conditions in complete culture medium (see 1c) […].
(§2) • v. Cells were treated with AZD1390 over the concentration range 10 μM-0.00152 μM, prepared by 10-point 3× serial dilutions from a 10 mM DMSO stock. Cells were incubated under standard conditions with the compounds for 7 days with refresh of the medium and drug twice a week. • vi. After the 7 day incubation, CGT assays were performed to assess cell viability.
(§3) Data showing cell viability for NEK1 knockout cell lines and NT cell lines are shown in FIGS. 4A-D. Data are normalized relative to cells treated with DMSO only.

[2] = system: HSC-2 cells ± NEK-1 knockout
Method: as §1, §2, §3

[3] = system: HCC1806 cells ± NEK-1 knockout
Method: as §1, §2, §3

Measured: effect on cell viability when combined with a NEK-1 knockout

CC(C)n1c(=O)n(C)c2cnc3cc(F)c(-c4ccc(OCCCN5CCCCC5)nc4)cc3c21 [AZD1390]
synergistic effect: all assays above
